Measurements as given in US20230240290A1, “USE OF (Z)-3-HEXENYL ESTERS AND METHOD FOR PROTECTING PLANTS AGAINST PESTS” (UNIVERSITAT POLITÈCNICA DE VALÈNCIA, priority 2020, published 2023).
Entries after “also recorded” stand apart in the source; their conditions may differ.

Key:
Assay type in all cases: in vivo
[1] = system: NPR1 (salicylic acid pathway); experiment: Transcriptional response of NPR1 in Carrizo citrange plants exposed to the volatile; settings: intact Carrizo citrange plants exposed 24 h; n=6
Tamarixia radiata = experiment: Y-tube olfactometer preference, exposed vs intact Carrizo citrange plants; settings: plants exposed 24 h vs intact plants
Method: To assess the preference of D. citri females and the parasitoid T. radiata to Carrizo citrange plants that were previously exposed for 24 h to (Z)-3-HP in relation to intact plants, a Y-shaped olfactometer was used in the same way as that described in Example 1, and the plants were exposed to both volatiles as described above with the use of pieces of filter paper. A total of 40 valid replicates were recorded for each species for each pair of odor sources. Each individual was tested only once. […] After recording five responses, the Y-tube was rinsed with soapy water, cleaned with acetone, and allowed to dry for 5 minutes. The odor sources were later switched between the left and right side arms to minimize any spatial effect on choice. The two types of plants (intact and induced) were used only once to assess the response of 10 females and were then replaced with new plants. The Y-tube experiment was performed under the following environmental conditions: 25±1° C. and 60±10% RH.
The D. citri adults were obtained from a colony established at SWFREC (University of Florida), initially originating from citrus fruits located in their experimental plots. The parasitoids were collected in these experimental fields. Newly emerged adult females less than 5 days old were used in all the assays.

[2] = system: Frankliniella occidentalis; experiment: Y-tube olfactometer preference, exposed vs intact tomato plants; settings: plants exposed 24 h vs intact plants
From the text: (§1) It was studied whether the defensive activation achieved by exposure to (Z)-3-hexenyl propanoate could affect repellency and/or attraction in herbivores that attack tomatoes, the whitefly Bemisia tobaci (Gennadius) (Hemiptera: Aleyrodidae), the thrip Frankliniella occidentalis Pergande (Thysanoptera: Thripidae), the red spider Tetranychus urticae Koch (Acari: Tetranychidae) and the tomato borer, Tuta absoluta (Meyrick) (Lepidoptera: Gelechiidae), and in a natural enemy that has been used as a model organism in this crop, the parasitoid Encarsia formosa Gahan (Hymenoptera: Aphelinidae).
(§2) The last instar nymphs of B. tabaci and the pupae of E. formosa were provided by Koppert Biological Systems, S. L. (Águilas, Murcia, Spain). The recently emerged B. tabaci adults (less than 2 days old) were released into tomato plants inside 60×60×60 cm plastic cages (BugDorm-2) and placed in a climatic chamber at 25±2° C., 65±10% RH and a 14:10 h (L:D) photoperiod in IVIA. Five-day-old B. tabaci adults were used in all the experiments. In the case of E. formosa, the pupae were placed in a Petri dish 9 cm in diameter and allowed to emerge under ambient laboratory conditions (25±2° C.), with a small drop of honey as food. E. formosa females less than two days old were used in all the experiments. F. occidentalis adults came from a brood kept in captivity established in the Valencian Institute of Agrarian Research (Instituto Valenciano de Investigaciones Agrarias, IVIA) in 2010, originally from Campo de Cartagena (Murcia, Spain). The thrips brood was kept in bean pods (Phaseolus vulgaris L.; Fabales: Fabaceae) under the same conditions described above. All the F. occidentalis females used for experimentation were less than five days old. T. urticae adults were obtained from a colony established in IVIA in 2011, which initially came from clementines located in La Plana (Castelló, Spain). The mites were kept on tomato plants in a climatic chamber under the same conditions described above. T. absoluta females were obtained from colonies on tomatoes maintained in a greenhouse at IVIA at 25±4° C., 60±15% RH, and under a natural photoperiod. Newly emerged adult females less than 5 days old were used in all the assays.
(§3) To assess the preference of F. occidentalis, B. tabaci, T. urticae, T. absoluta and E. formosa for tomato plants that were previously exposed for 24 h to (Z)-3-HP relative to intact plants, a Y-shaped olfactometer was used. The plants were exposed to both volatiles as described above using the pieces of filter paper. The olfactometer (Analytical Research Systems, Gainesville, Fla.) consisted of a 2.4 cm in diameter Y-shaped glass tube with a 13.5 cm long base and two arms, each 5.75 cm long. Both side arms were connected via high-density polyethylene (HDPE) tubing to two identical glass jars (5-liter volume), each of which was connected to an air pump that produced a unidirectional humidified airflow at 150 ml/min (Pérez-Hedo et al. Journal of Pest Science 3: 543-554 (2015)).
(§4) For each species, a female was individually introduced into the inlet tube of the olfactometer and observed until she had walked at least 3 cm down one of the arms of choice or until 15 minutes had elapsed. A total of 40 valid replicates were recorded for each species for each pair of odor sources. Each individual was tested only once. […] After recording five responses, the Y-tube was rinsed with soapy water, cleaned with acetone, and allowed to dry for 5 minutes. […]

Tuta absoluta = experiment: as above; settings: plants exposed 24 h vs intact plants
From the text: as §1, §2, §3, §4

Encarsia formosa = experiment: as above; settings: plants exposed 24 h vs intact plants
From the text: as §1, §2, §3, §4

Tetranychus urticae = experiment: as above; settings: plants exposed 24 h vs intact plants
From the text: as §1, §2, §3, §4

Bemisia tabaci = experiment: as above; settings: plants exposed 24 h vs intact plants
From the text: as §1, §2, §3, §4

CC/C=C\CCOC(=O)CC [(Z)-3-hexenyl propanoate]
Transcriptional response of NPR1 compared to control [1]: significantly overexpressed
Response of Tamarixia radiata females to exposed citrus plants (Tamarixia radiata): highly attractive; also recorded: more attractive
Response of F. occidentalis females to exposed tomato plants [2]: repel; also recorded: repellent
Response of T. absoluta females to exposed tomato plants (Tuta absoluta): repel; also recorded: repellent
Response of E. formosa females to exposed tomato plants (Encarsia formosa): more attractive
Response of T. urticae females to exposed tomato plants (Tetranychus urticae): no preference
Response of B. tabaci females to exposed tomato plants (Bemisia tabaci): repel; also recorded: repellent
